Assay results from the NIST ThermoML archive (doi:10.1021/je100734t).
Several values for one entry are separate records, joined by “and”; a condition that tells them apart may be missing. Equal values may be shown once. Numbers after ± are expanded uncertainties.

Tests used:
[1] = 101 kPa, Liquid; for speed of sound: Pulse-echo method
[2] = xn = mol fraction of the nth substance listed; conditions: 101 kPa, Liquid; for speed of sound: Pulse-echo method

Structure (SMILES) | mass density ([1]; 293.15 K) | speed of sound ([1]; 293.15 K) | mass density ([1]; 303.15 K) | speed of sound ([1]; 303.15 K) | mass density ([1]; 313.15 K) | speed of sound ([1]; 313.15 K) | speed of sound ([2]; 293.15 K, x1 = 1) | mass density ([2]; 293.15 K, x1 = 1) | speed of sound ([2]; 303.15 K, x1 = 1) | mass density ([2]; 303.15 K, x1 = 1) | speed of sound ([2]; 313.15 K, x1 = 1) | mass density ([2]; 313.15 K, x1 = 1) | other results
Cc1ccccc1C [1,2-dimethylbenzene] | 879.49 ± 0.35 kg/m3 | 1369 ± 2 m/s | 871.14 ± 0.36 kg/m3 | 1328 ± 2 m/s | 862.59 ± 0.38 kg/m3 | 1289 ± 2 m/s | – | – | – | – | – | – | –
Cc1ccccc1C [1,2-dimethylbenzene] + CCCCCCCCCCO | – | – | – | – | – | – | 1369 ± 2 m/s | 879.49 ± 0.35 kg/m3 | 1328 ± 2 m/s | 871.14 ± 0.36 kg/m3 | 1289 ± 2 m/s | 862.59 ± 0.38 kg/m3 | –
Cc1ccccc1C [1,2-dimethylbenzene] + CCCCCCCCCO | – | – | – | – | – | – | 1369 ± 2 m/s | 879.49 ± 0.35 kg/m3 | 1328 ± 2 m/s | 871.14 ± 0.36 kg/m3 | 1289 ± 2 m/s | 862.59 ± 0.38 kg/m3 | –
Cc1cccc(C)c1 [1,3-dimethylbenzene] | 864.18 ± 0.49 kg/m3 | 1341 ± 2 m/s and 1340 ± 2 m/s | 855.56 ± 0.5 kg/m3 | 1300 ± 2 m/s | 846.9 ± 0.51 kg/m3 | 1259 ± 2 m/s | – | – | – | – | – | – | –
Cc1cccc(C)c1 [1,3-dimethylbenzene] + CCCCCCCCCO | – | – | – | – | – | – | 1341 ± 2 m/s | 864.18 ± 0.49 kg/m3 | 1300 ± 2 m/s | 855.56 ± 0.5 kg/m3 | 1259 ± 2 m/s | 846.9 ± 0.51 kg/m3 | –
Cc1ccc(C)cc1 [1,4-dimethylbenzene] | 860.96 ± 0.49 kg/m3 | 1330 ± 2 m/s | 852.25 ± 0.5 kg/m3 | 1289 ± 2 m/s | 843.51 ± 0.51 kg/m3 | 1249 ± 2 m/s | – | – | – | – | – | – | –
Cc1ccc(C)cc1 [1,4-dimethylbenzene] + CCCCCCCCCCO | – | – | – | – | – | – | 1330 ± 2 m/s | 860.96 ± 0.49 kg/m3 | 1289 ± 2 m/s | 852.25 ± 0.5 kg/m3 | 1249 ± 2 m/s | 843.51 ± 0.51 kg/m3 | –
Cc1ccc(C)cc1 [1,4-dimethylbenzene] + CCCCCCCCCO | – | – | – | – | – | – | 1330 ± 2 m/s | 860.96 ± 0.49 kg/m3 | 1289 ± 2 m/s | 852.25 ± 0.5 kg/m3 | 1249 ± 2 m/s | 843.51 ± 0.51 kg/m3 | –
CCCCCCCCCCO [decan-1-ol] | 829.98 ± 0.42 kg/m3 | 1396 ± 2 m/s | 823.1 ± 0.44 kg/m3 | 1362 ± 2 m/s | 816.27 ± 0.45 kg/m3 | 1329 ± 2 m/s | – | – | – | – | – | – | –
CCCCCCCCCCO [decan-1-ol] + Cc1cccc(C)c1 | – | – | – | – | – | – | – | – | – | – | – | – | speed of sound ([2]; 293.15 K, x2 = 0): 1396 ± 2 m/s; mass density ([2]; 293.15 K, x2 = 0): 829.98 ± 0.42 kg/m3; speed of sound ([2]; 303.15 K, x2 = 0): 1362 ± 2 m/s; mass density ([2]; 303.15 K, x2 = 0): 823.1 ± 0.44 kg/m3; speed of sound ([2]; 313.15 K, x2 = 0): 1329 ± 2 m/s; mass density ([2]; 313.15 K, x2 = 0): 816.27 ± 0.45 kg/m3
CCc1ccccc1 [ethylbenzene] | 867.14 ± 0.35 kg/m3 | 1340 ± 2 m/s | 858.37 ± 0.36 kg/m3 | 1298 ± 2 m/s | 849.55 ± 0.37 kg/m3 | 1257 ± 2 m/s | – | – | – | – | – | – | –
CCc1ccccc1 [ethylbenzene] + CCCCCCCCCCO | – | – | – | – | – | – | 1340 ± 2 m/s | 867.14 ± 0.35 kg/m3 | 1298 ± 2 m/s | 858.37 ± 0.36 kg/m3 | 1257 ± 2 m/s | 849.55 ± 0.36 kg/m3 | –
CCc1ccccc1 [ethylbenzene] + CCCCCCCCCO | – | – | – | – | – | – | 1340 ± 2 m/s | 867.14 ± 0.35 kg/m3 | 1298 ± 2 m/s | 858.37 ± 0.36 kg/m3 | 1257 ± 2 m/s | 849.55 ± 0.37 kg/m3 | –
CCCCCCCCCO [nonan-1-ol] | 827.7 ± 0.43 kg/m3 | 1381 ± 2 m/s | 820.82 ± 0.44 kg/m3 | 1347 ± 2 m/s | 813.88 ± 0.45 kg/m3 | 1314 ± 2 m/s | – | – | – | – | – | – | –
